Experimental data: patent US20250176599A1, “FLAVOR COMPOSITION AND FOOD AND BEVERAGE” (TAKASAGO INTERNATIONAL CORPORATION, priority 2021, published 2025)

Tests used:
[1] = Sensory evaluation of aqueous solution IV containing 1,5-octadien-3-one 100 ppt: off-flavor intensity and masking component intensity; details: aqueous solution IV, 1,5-octadien-3-one 100 ppt, average score 0-4
Description: (§1) In ion-exchanged water, each degradation component was added to achieve the concentrations listed in Table 1, and aqueous solutions I to VI containing these degradation components were prepared.
(§2) For the aforementioned aqueous solutions containing degradation components, nootkatone was added at the concentrations listed in Table 2 to confirm the intensity of the off-flavor (masking effect) in each sample and the intensity of the masking component itself (the impact on the flavor of the food and/or beverage itself).
(§3) The test was conducted as follows. Eight experienced panelists were selected to conduct a sensory evaluation. The intensity of the off-flavor of the aqueous solution containing the degradation components derived from unsaturated fatty acids, without added masking components, was set as “Evaluation: 4.” The ion-exchanged water free of any degradation components was set as “Evaluation: 0.” The intensity of the off-flavor (masking effect) of each sample was then relatively evaluated according to the following evaluation criteria.
(§4) • Off-flavor is strongly sensed: 4 points • Off-flavor is sensed: 3 points • Off-flavor is slightly sensed: 2 points • Off-flavor is barely sensed: 1 point • Off-flavor is not sensed at all: 0 points
(§5) Also, the intensity of the masking components (impact on the flavor of the food and/or beverage itself) was absolutely evaluated according to the following evaluation criteria.
(§6) • Masking component is strongly sensed: 4 points • Masking component is sensed: 3 points • Masking component is slightly sensed: 2 points • Masking component is barely sensed: 1 point • Masking component is not sensed at all: 0 points

[2] = Sensory evaluation of aqueous solution V containing 1-octen-3-ol 10 ppb: off-flavor intensity and masking component intensity; details: 1-octen-3-ol 10 ppb, average score 0-4
Description: as §1, §2, §3, §4, §5, §6

[3] = Sensory evaluation of aqueous solution I containing (E)-2-nonenal 1 ppb: off-flavor intensity and masking component intensity; details: (E)-2-nonenal 1 ppb, average score 0-4
Description: as §1, §2, §3, §4, §5, §6

[4] = Overall conclusion of the sensory evaluation across aqueous solutions I to VI
Description: as §1, §2, §3, §4, §5, §6

[5] = Sensory evaluation of aqueous solution VI containing 1,5-octadien-3-ol 10 ppb: off-flavor intensity and masking component intensity; details: aqueous solution VI, 1,5-octadien-3-ol 10 ppb, average score 0-4
Description: as §1, §2, §3, §4, §5, §6

[6] = Sensory evaluation of aqueous solution III containing 1-octen-3-one 1 ppb: off-flavor intensity and masking component intensity; details: 1-octen-3-one 1 ppb, average score 0-4
Description: as §1, §2, §3, §4, §5, §6

[7] = Sensory evaluation of aqueous solution II containing (E)-2-octenal 10 ppb: off-flavor intensity and masking component intensity; details: (E)-2-octenal 10 ppb, average score 0-4
Description: as §1, §2, §3, §4, §5, §6

What does the source list for `C=CC(C)(CCC=C(C)C)OC(=O)CCC` (stereo not shown) [Linalyl Butyrate, linalyl butyrate]?
Off-Flavor Intensity ([1]; 1 ppb added): 2.9 points; Off-Flavor Intensity ([1]; 1 ppm added): 0.9 points; Off-Flavor Intensity ([1]; 5 ppm added): 0.9 points; Off-Flavor Intensity ([1]; 10 ppb added): 2.6 points; Off-Flavor Intensity ([1]; 10 ppt added): 3.6 points; Off-Flavor Intensity ([1]; 50 ppb added): 2.1 points; Off-Flavor Intensity ([1]; 100 ppb added): 1.6 points; Off-Flavor Intensity ([1]; 100 ppt added): 3.0 points; Off-Flavor Intensity ([1]; 500 ppb added): 1.3 points; Off-Flavor Intensity ([2]; 1 ppb added): 2.6 points; Off-Flavor Intensity ([2]; 1 ppm added): 1.0 points; Off-Flavor Intensity ([2]; 5 ppm added): 0.8 points; Off-Flavor Intensity ([2]; 10 ppb added): 2.3 points; Off-Flavor Intensity ([2]; 10 ppt added): 3.3 points; Off-Flavor Intensity ([2]; 50 ppb added): 2.1 points; Off-Flavor Intensity ([2]; 100 ppb added): 1.9 points; Off-Flavor Intensity ([2]; 100 ppt added): 3.0 points; Off-Flavor Intensity ([2]; 500 ppb added): 1.3 points; Off-Flavor Intensity ([3]; 1 ppb added): 2.6 points; Off-Flavor Intensity ([3]; 1 ppm added): 1.3 points; Off-Flavor Intensity ([3]; 5 ppm added): 1.0 points; Off-Flavor Intensity ([3]; 10 ppb added): 2.3 points; Off-Flavor Intensity ([3]; 10 ppt added): 3.4 points; Off-Flavor Intensity ([3]; 50 ppb added): 2.0 points; Off-Flavor Intensity ([3]; 100 ppb added): 1.9 points; Off-Flavor Intensity ([3]; 100 ppt added): 3.1 points; Off-Flavor Intensity ([3]; 500 ppb added): 1.3 points; concentration that masks the off-flavor and does not affect the flavor of the food and/or beverage itself, lower limit [4]: ≥ 10 ppt; concentration that masks the off-flavor and does not affect the flavor of the food and/or beverage itself, upper limit [4]: ≤ 1 ppm; Off-Flavor Intensity ([5]; 1 ppb added): 2.0 points; Off-Flavor Intensity ([5]; 1 ppm added): 0.5 points; Off-Flavor Intensity ([5]; 5 ppm added): 0.1 points; Off-Flavor Intensity ([5]; 10 ppb added): 1.8 points; Off-Flavor Intensity ([5]; 10 ppt added): 2.5 points; Off-Flavor Intensity ([5]; 50 ppb added): 1.5 points; Off-Flavor Intensity ([5]; 100 ppb added): 1.3 points; Off-Flavor Intensity ([5]; 100 ppt added): 2.4 points; Off-Flavor Intensity ([5]; 500 ppb added): 0.9 points; Off-Flavor Intensity ([6]; 1 ppb added): 2.6 points; Off-Flavor Intensity ([6]; 1 ppm added): 1.5 points; Off-Flavor Intensity ([6]; 5 ppm added): 1.0 points; Off-Flavor Intensity ([6]; 10 ppb added): 2.3 points; Off-Flavor Intensity ([6]; 10 ppt added): 3.5 points; Off-Flavor Intensity ([6]; 50 ppb added): 1.9 points; Off-Flavor Intensity ([6]; 100 ppb added): 1.9 points; Off-Flavor Intensity ([6]; 100 ppt added): 3.3 points; Off-Flavor Intensity ([6]; 500 ppb added): 1.8 points; Off-Flavor Intensity ([7]; 1 ppb added): 2.3 points; Off-Flavor Intensity ([7]; 1 ppm added): 0.6 points; Off-Flavor Intensity ([7]; 5 ppm added): 0.4 points; Off-Flavor Intensity ([7]; 10 ppb added): 1.8 points; Off-Flavor Intensity ([7]; 10 ppt added): 3.1 points; Off-Flavor Intensity ([7]; 50 ppb added): 1.5 points; Off-Flavor Intensity ([7]; 100 ppb added): 1.4 points; Off-Flavor Intensity ([7]; 100 ppt added): 2.8 points; Off-Flavor Intensity ([7]; 500 ppb added): 0.9 points

With `CC(=O)/C=C/C1C(C)=CCCC1(C)C` (stereo not drawn) [α-Ionone, α-ionone] as the molecule, how does the “Off-Flavor Intensity” value ([1]; 0.1 ppt added) read?
Its value is 3.5 points.

And the “Off-Flavor Intensity” value ([1]; 1 ppb added)?
The value was 2.4 points.

What about the “Off-Flavor Intensity” value ([1]; 1 ppm added) of the same molecule?
The value was 1.0 points.

And the “Off-Flavor Intensity” value ([1]; 1 ppt added)?
Its value is 3.4 points.

What about the “Off-Flavor Intensity” value ([1]; 10 ppb added) of the same molecule?
Its value is 2.1 points.

What about the “Off-Flavor Intensity” value ([1]; 10 ppm added) of the same molecule?
Its value is 0.1 points.

What about the “Off-Flavor Intensity” value ([1]; 10 ppt added) of the same molecule?
The value was 3.1 points.

And the “Off-Flavor Intensity” value ([1]; 100 ppb added)?
The value was 1.6 points.

What about the “Off-Flavor Intensity” value ([1]; 100 ppt added) of the same molecule?
Its value is 2.9 points.

And the “Off-Flavor Intensity” value ([2]; 0.1 ppt added)?
The value was 3.1 points.

And the “Off-Flavor Intensity” value ([2]; 1 ppb added)?
Its value is 1.9 points.

And the “Off-Flavor Intensity” value ([2]; 1 ppm added)?
The value was 0.5 points.

And the “Off-Flavor Intensity” value ([2]; 1 ppt added)?
Its value is 3.0 points.

What about the “Off-Flavor Intensity” value ([2]; 10 ppb added) of the same molecule?
Its value is 1.5 points.

What about the “Off-Flavor Intensity” value ([2]; 10 ppm added) of the same molecule?
Its value is 0.0 points.

What about the “Off-Flavor Intensity” value ([2]; 10 ppt added) of the same molecule?
The value was 2.5 points.

And the “Off-Flavor Intensity” value ([2]; 100 ppb added)?
The value was 1.0 points.

And the “Off-Flavor Intensity” value ([2]; 100 ppt added)?
The value was 2.3 points.

What about the “Off-Flavor Intensity” value ([3]; 0.1 ppt added) of the same molecule?
The value was 3.9 points.

And the “Off-Flavor Intensity” value ([3]; 1 ppb added)?
Its value is 2.3 points.

And the “Off-Flavor Intensity” value ([3]; 1 ppm added)?
The value was 0.6 points.

What about the “Off-Flavor Intensity” value ([3]; 1 ppt added) of the same molecule?
Its value is 3.6 points.

And the “Off-Flavor Intensity” value ([3]; 10 ppb added)?
Its value is 1.8 points.

What about the “Off-Flavor Intensity” value ([3]; 10 ppm added) of the same molecule?
The value was 0.3 points.

What about the “Off-Flavor Intensity” value ([3]; 10 ppt added) of the same molecule?
The value was 3.1 points.

And the “Off-Flavor Intensity” value ([3]; 100 ppb added)?
Its value is 1.3 points.

What about the “Off-Flavor Intensity” value ([3]; 100 ppt added) of the same molecule?
The value was 2.6 points.

And the “concentration that masks the off-flavor and does not affect the flavor of the food and/or beverage itself, lower limit” value [4]?
The value was ≥ 1 ppt.

What about the “concentration that masks the off-flavor and does not affect the flavor of the food and/or beverage itself, upper limit” value [4] of the same molecule?
Its value is ≤ 100 ppb.

What about the “Off-Flavor Intensity” value ([5]; 0.1 ppt added) of the same molecule?
Its value is 3.1 points.

And the “Off-Flavor Intensity” value ([5]; 1 ppb added)?
The value was 1.8 points.

And the “Off-Flavor Intensity” value ([5]; 1 ppm added)?
Its value is 0.1 points.

What about the “Off-Flavor Intensity” value ([5]; 1 ppt added) of the same molecule?
The value was 2.9 points.

And the “Off-Flavor Intensity” value ([5]; 10 ppb added)?
Its value is 1.5 points.

What about the “Off-Flavor Intensity” value ([5]; 10 ppm added) of the same molecule?
Its value is 0.0 points.

What about the “Off-Flavor Intensity” value ([5]; 10 ppt added) of the same molecule?
The value was 2.5 points.

And the “Off-Flavor Intensity” value ([5]; 100 ppb added)?
Its value is 0.8 points.

And the “Off-Flavor Intensity” value ([5]; 100 ppt added)?
The value was 2.0 points.

And the “Off-Flavor Intensity” value ([6]; 0.1 ppt added)?
The value was 3.6 points.

And the “Off-Flavor Intensity” value ([6]; 1 ppb added)?
The value was 2.4 points.

What about the “Off-Flavor Intensity” value ([6]; 1 ppm added) of the same molecule?
The value was 0.8 points.

What about the “Off-Flavor Intensity” value ([6]; 1 ppt added) of the same molecule?
Its value is 3.4 points.

What about the “Off-Flavor Intensity” value ([6]; 10 ppb added) of the same molecule?
The value was 1.9 points.

And the “Off-Flavor Intensity” value ([6]; 10 ppm added)?
Its value is 0.1 points.

And the “Off-Flavor Intensity” value ([6]; 10 ppt added)?
Its value is 3.0 points.

What about the “Off-Flavor Intensity” value ([6]; 100 ppb added) of the same molecule?
The value was 1.6 points.

What about the “Off-Flavor Intensity” value ([6]; 100 ppt added) of the same molecule?
The value was 2.8 points.

And the “Off-Flavor Intensity” value ([7]; 0.1 ppt added)?
The value was 3.1 points.

And the “Off-Flavor Intensity” value ([7]; 1 ppb added)?
The value was 1.9 points.

What about the “Off-Flavor Intensity” value ([7]; 1 ppm added) of the same molecule?
The value was 0.1 points.

What about the “Off-Flavor Intensity” value ([7]; 1 ppt added) of the same molecule?
Its value is 2.9 points.

What about the “Off-Flavor Intensity” value ([7]; 10 ppb added) of the same molecule?
Its value is 1.5 points.

What about the “Off-Flavor Intensity” value ([7]; 10 ppm added) of the same molecule?
Its value is 0.0 points.

What about the “Off-Flavor Intensity” value ([7]; 10 ppt added) of the same molecule?
The value was 2.5 points.

And the “Off-Flavor Intensity” value ([7]; 100 ppb added)?
The value was 0.8 points.

What about the “Off-Flavor Intensity” value ([7]; 100 ppt added) of the same molecule?
Its value is 2.4 points.
